Earlier results in patent US20170027963A1, “DELIVERY OF NON-STEROIDAL AGENTS TO THE BRAIN VIA THE NASAL TRACT TO TREAT NEUROLOGICAL DISORDERS” (priority 2014, published 2017).

Settings: prescribed ibuprofen for more than five years vs those who did not; US veterans aged 55 and older

## CC(C)Cc1ccc(C(C)C(=O)O)cc1 (stereo not shown) [ibuprofen]
  less likely to develop Alzheimer's disease: 40%
